Data on 31 compounds can be found in patent publication US20140058103A1, “Inhibitors of PI3K-Delta and Methods of Their Use and Manufacture” (Exelixis, Inc., priority 2010, published 2014).

The term IC50 denotes the concentration that gives 50% inhibition. A lower IC50 goes with greater potency.

Molecules are shown by their SMILES.

For this assay, the target named is PI3K delta (Homo sapiens, UniProt O00329). Description: Luciferase-coupled chemiluminescence kinase assay (ATP consumption, KinaseGlo). The class given is biochemical. The method, boiled down: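 Compound, kinase and ATP (≤ KM) reacted 2 h at ambient temperature, then remaining ATP quantified with luciferase-luciferin (KinaseGlo) luminescence as percent consumed.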
Sequence of PI3K delta (O00329 whole entry): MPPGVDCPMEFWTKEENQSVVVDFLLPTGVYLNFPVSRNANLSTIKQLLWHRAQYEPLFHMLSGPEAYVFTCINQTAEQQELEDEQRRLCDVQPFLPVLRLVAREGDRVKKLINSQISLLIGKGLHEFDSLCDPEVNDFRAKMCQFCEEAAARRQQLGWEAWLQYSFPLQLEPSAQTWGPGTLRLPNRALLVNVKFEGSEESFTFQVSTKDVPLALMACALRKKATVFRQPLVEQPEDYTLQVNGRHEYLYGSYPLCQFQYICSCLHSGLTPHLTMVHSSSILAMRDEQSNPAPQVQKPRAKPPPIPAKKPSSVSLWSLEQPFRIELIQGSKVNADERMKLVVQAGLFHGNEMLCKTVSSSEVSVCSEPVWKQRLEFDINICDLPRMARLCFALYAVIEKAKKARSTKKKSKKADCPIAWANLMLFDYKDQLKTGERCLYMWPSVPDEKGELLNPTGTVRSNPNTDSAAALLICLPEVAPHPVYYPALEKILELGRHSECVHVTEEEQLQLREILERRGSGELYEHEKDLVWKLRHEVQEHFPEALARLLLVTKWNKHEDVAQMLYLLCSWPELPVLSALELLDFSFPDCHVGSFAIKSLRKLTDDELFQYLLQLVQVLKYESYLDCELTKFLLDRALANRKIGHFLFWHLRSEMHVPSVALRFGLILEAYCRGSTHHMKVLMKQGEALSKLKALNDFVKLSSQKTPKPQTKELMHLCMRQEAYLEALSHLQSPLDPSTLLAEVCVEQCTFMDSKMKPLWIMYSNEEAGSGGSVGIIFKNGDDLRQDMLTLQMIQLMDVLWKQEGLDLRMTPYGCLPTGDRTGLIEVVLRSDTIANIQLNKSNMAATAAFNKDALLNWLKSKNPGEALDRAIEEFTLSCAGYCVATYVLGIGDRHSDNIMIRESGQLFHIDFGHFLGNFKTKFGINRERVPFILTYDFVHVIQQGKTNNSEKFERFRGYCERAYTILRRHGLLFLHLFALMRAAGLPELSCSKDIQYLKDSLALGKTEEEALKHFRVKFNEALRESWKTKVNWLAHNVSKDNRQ
Sequence of PI3K delta (P27986 whole entry partner): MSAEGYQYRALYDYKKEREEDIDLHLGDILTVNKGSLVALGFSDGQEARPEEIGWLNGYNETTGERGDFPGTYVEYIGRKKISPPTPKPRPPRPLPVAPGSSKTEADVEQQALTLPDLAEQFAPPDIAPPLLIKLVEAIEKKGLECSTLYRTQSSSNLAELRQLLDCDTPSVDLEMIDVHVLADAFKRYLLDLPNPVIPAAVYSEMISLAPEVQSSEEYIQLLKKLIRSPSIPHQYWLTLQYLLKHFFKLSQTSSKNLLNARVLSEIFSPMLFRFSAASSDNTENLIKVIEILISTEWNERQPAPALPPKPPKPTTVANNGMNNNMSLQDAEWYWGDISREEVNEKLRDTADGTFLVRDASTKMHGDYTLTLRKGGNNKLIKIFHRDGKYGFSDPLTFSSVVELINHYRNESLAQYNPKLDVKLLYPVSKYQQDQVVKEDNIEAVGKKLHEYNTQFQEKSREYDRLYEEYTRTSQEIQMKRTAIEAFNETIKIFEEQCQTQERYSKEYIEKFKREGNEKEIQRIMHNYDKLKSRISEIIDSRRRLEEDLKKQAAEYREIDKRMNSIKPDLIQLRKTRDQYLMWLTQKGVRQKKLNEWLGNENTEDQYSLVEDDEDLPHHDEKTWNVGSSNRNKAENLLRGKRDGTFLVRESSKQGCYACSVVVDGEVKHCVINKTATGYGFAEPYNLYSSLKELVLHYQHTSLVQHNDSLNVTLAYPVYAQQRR
As for `Cn1c(-c2ccncn2)nc2c(N3CCC(n4c(=O)[nH]c5ccccc54)CC3)ncnc21` [Compound 298, 1-[1-(9-methyl-8-pyrimidin-4-yl-9H-purin-6-yl)piperidin-4-yl]-1,3-dihydro-2H-benzimidazol-2-one], the IC50 is 250 to 500 nM.
The value for `COc1ccc(-c2nc3c(N4CCC(n5c(=O)[nH]c6ccccc65)CC4)ncnc3n2C)cn1` [Compound 299, 1-(1-{9-methyl-8-[6-(methyloxy)pyridin-3-yl]-9H-purin-6-yl}piperidin-4-yl)-1,3-dihydro-2H-benzimidazol-2-one] was under 50 nM.
The same measure for `Cn1c(-c2ccc(O)nc2)nc2c(N3CCC(n4c(=O)[nH]c5ccccc54)CC3)ncnc21` [Compound 300, 1-{1-[8-(6-hydroxypyridin-3-yl)-9-methyl-9H-purin-6-yl]piperidin-4-yl}-1,3-dihydro-2H-benzimidazol-2-one]: 500 to 1500 nM; for `Cn1c(-c2c[nH]c3ncccc23)nc2c(N3CCC(n4c(=O)[nH]c5ccccc54)CC3)ncnc21` [Compound 301, 1-{1-[9-methyl-8-(1H-pyrrolo[2,3-b]pyridin-3-yl)-9H-purin-6-yl]piperidin-4-yl}-1,3-dihydro-2H-benzimidazol-2-one]: under 50 nM; for `Cn1c(-c2cnc3[nH]ccc3c2)nc2c(N3CCC(n4c(=O)[nH]c5ccccc54)CC3)ncnc21` [Compound 302, 1-{1-[9-methyl-8-(1H-pyrrolo[2,3-b]pyridin-5-yl)-9H-purin-6-yl]piperidin-4-yl}-1,3-dihydro-2H-benzimidazol-2-one]: under 50 nM.
Take `Cn1c(-c2ccc(N)nc2)nc2c(N3CCC(n4c(=O)[nH]c5ccccc54)CC3)ncnc21` [Compound 303, 1-{1-[8-(6-aminopyridin-3-yl)-9-methyl-9H-purin-6-yl]piperidin-4-yl}-1,3-dihydro-2H-benzimidazol-2-one]: the IC50 was under 50 nM.
The same measure for `CCn1c(-c2cnc(N)nc2)nc2c(N3CCC(n4c(=O)[nH]c5ccccc54)CC3)ncnc21` [Compound 304, 1-{1-[8-(2-aminopyrimidin-5-yl)-9-ethyl-9H-purin-6-yl]piperidin-4-yl)-1,3-dihydro-2H-benzimidazol-2-one]: under 50 nM; for `Cn1c(-c2cnc(N)nc2)nc2c(N3CCC(n4c(=O)[nH]c5ccccc54)CC3)ncnc21` [Compound 305, 1-{1-[8-(2-aminopyrimidin-5-yl)-9-methyl-9H-purin-6-yl]piperidin-4-yl}-1,3-dihydro-2H-benzimidazol-2-one]: under 50 nM.
The compound `CCn1c(-c2cnc(OC)nc2)nc2c(N3CCC(n4c(=O)[nH]c5ccccc54)CC3)ncnc21` [Compound 306, 1-(1-{9-ethyl-8-[2-(methyloxy)pyrimidin-5-yl]-9H-purin-6-yl}piperidin-4-yl)-1,3-dihydro-2H-benzimidazol-2-one] returned an IC50 of under 50 nM.
The same measure for `CCn1c(-c2cnc(NC)nc2)nc2c(N3CCC(n4c(=O)[nH]c5ccccc54)CC3)ncnc21` [Compound 307, 1-(1-{9-ethyl-8-[2-(methylamino)pyrimidin-5-yl]-9H-purin-6-yl)piperidin-4-yl)-1,3-dihydro-2H-benzimidazol-2-one]: under 50 nM; for `COc1ncc(-c2nc3c(N4CCC(n5c(=O)[nH]c6ccccc65)CC4)ncnc3n2C)c(OC)n1` [Compound 308, 1-(1-{8-[2,4-bis(methyloxy)pyrimidin-5-yl]-9-methyl-9H-purin-6-yl)piperidin-4-yl)-1,3-dihydro-2H-benzimidazol-2-one]: 50 to 250 nM.
For `CNc1ncc(-c2nc3c(N4CCC(n5c(=O)[nH]c6ccccc65)CC4)ncnc3n2C)cn1` [Compound 309, 1-(1-{9-methyl-8-[2-(methylamino)pyrimidin-5-yl]-9H-purin-6-yl}piperidin-4-yl)-1,3-dihydro-2H-benzimidazol-2-one], the IC50 is under 50 nM.
In turn, `COc1ncc(-c2nc3c(N4CCC(n5c(=O)[nH]c6ccccc65)CC4)ncnc3n2C)cn1` [Compound 310, 1-(1-{9-methyl-8-[2-(methyloxy)pyrimidin-5-yl]-9H-purin-6-yl}piperidin-4-yl)-1,3-dihydro-2H-benzimidazol-2-one] returned an IC50 of under 50 nM.
On to `CN(C)c1ncc(-c2nc3c(N4CCC(n5c(=O)[nH]c6ccccc65)CC4)ncnc3n2C)cn1` [Compound 311, 1-(1-{8-[2-(dimethylamino)pyrimidin-5-yl]-9-methyl-9H-purin-6-yl}piperidin-4-yl)-1,3-dihydro-2H-benzimidazol-2-one], for which the IC50 was under 50 nM.
`CCn1c(-c2ccnnc2)nc2c(N3CCC(n4c(=O)[nH]c5ccccc54)CC3)ncnc21` [Compound 312, 1-[1-(9-ethyl-8-pyridazin-4-yl-9H-purin-6-yl)piperidin-4-yl]-1,3-dihydro-2H-benzimidazol-2-one] yielded an IC50 of under 50 nM.
The value for `Cn1c(-c2ccnnc2)nc2c(N3CCC4(CC3)C(=O)Nc3ccccc34)ncnc21` [Compound 313, 1′-(9-methyl-8-pyridazin-4-yl-9H-purin-6-yl)spiro[indole-3,4′-piperidin]-2(1H)-one] was 50 to 250 nM; that for `CCn1c(-c2ccc(C(F)(F)F)nc2)nc2c(N3CCC(n4c(=O)[nH]c5ccccc54)CC3)ncnc21` [Compound 314, 1-(1-{9-ethyl-8-[6-(trifluoromethyl)pyridin-3-yl]-9H-purin-6-yl}piperidin-4-yl)-1,3-dihydro-2H-benzimidazol-2-one] was under 50 nM.
The value for `Cn1c(-c2ccc(C(F)(F)F)nc2)nc2c(N3CCC(n4c(=O)[nH]c5ncccc54)CC3)ncnc21` [Compound 315, 1-(1-{9-methyl-8-[6-(trifluoromethyl)pyridin-3-yl]-9H-purin-6-yl}piperidin-4-yl)-1,3-dihydro-2H-imidazo[4,5-b]pyridin-2-one] was under 50 nM; that for `CCn1c(-c2ccnnc2)nc2c(N3CCC4(CC3)C(=O)Nc3ccccc34)ncnc21` [Compound 316, 1′-(9-ethyl-8-pyridazin-4-yl-9H-purin-6-yl)spiro[indole-3,4′-piperidin]-2(1H)-one] was under 50 nM.
The value for `COC(=O)[C@H]1CN(c2ncnc3c2nc(-c2cnn(C)c2)n3C)CC[C@H]1n1c(=O)[nH]c2ccccc21` [Compound 317, methyl (3S,4R)-1-[9-methyl-8-(1-methyl-1H-pyrazol-4-yl)-9H-purin-6-yl]-4-(2-oxo-2,3-dihydro-1H-benzimidazol-1-yl)piperidine-3-carboxylate] was 500 to 1500 nM; that for `CCn1c(C(=O)NCC(F)(F)F)nc2c(N3CCC(n4c(=O)[nH]c5ncccc54)CC3)ncnc21` [Compound 318, 9-ethyl-6-[4-(2-oxo-2,3-dihydro-1H-imidazo[4,5-b]pyridin-1-yl)piperidin-1-yl]-N-(2,2,2-trifluoroethyl)-9H-purine-8-carboxamide] was under 50 nM; that for `Cn1c(C(=O)NCC(F)(F)F)nc2c(N3CCC(n4c(=O)[nH]c5ncccc54)CC3)ncnc21` [Compound 319, 9-methyl-6-[4-(2-oxo-2,3-dihydro-1H-imidazo[4,5-b]pyridin-1-yl)piperidin-1-yl]-N-(2,2,2-trifluoroethyl)-9H-purine-8-carboxamide] was under 50 nM.
Turning to `CCn1c(-c2cnc(N(C)C)nc2)nc2c(N3CCC(n4c(=O)[nH]c5ccccc54)CC3)ncnc21` [Compound 320, 1-[1-{8-[2-(dimethylamino)pyrimidin-5-yl]-9-ethyl-9H-purin-6-yl)piperidin-4-yl)-1,3-dihydro-2H-benzimidazol-2-one], the IC50 was under 50 nM.
`CCn1c(-c2cnc(OC)nc2OC)nc2c(N3CCC(n4c(=O)[nH]c5ccccc54)CC3)ncnc21` [Compound 321, 1-(1-{8-[2,4-bis(methyloxy)pyrimidin-5-yl]-9-ethyl-9H-purin-6-yl}piperidin-4-yl)-1,3-dihydro-2H-benzimidazol-2-one] yielded a 50% inhibitory concentration (IC50) of 500 to 1500 nM.
The value for `CCn1cc(-c2nc3c(N4CCC(n5c(=O)[nH]c6ncccc65)CC4)ncnc3n2C)cn1` [Compound 322, 1-{1-[8-(1-ethyl-1H-pyrazol-4-yl)-9-methyl-9H-purin-6-yl]piperidin-4-yl}-1,3-dihydro-2H-imidazo[4,5-b]pyridin-2-one] was under 50 nM; that for `CCn1c(-c2cnn(C)c2)nc2c(N3CCC(n4c(=O)[nH]c5ncccc54)CC3)ncnc21` [Compound 323, 1-{1-[9-ethyl-8-(1-methyl-1H-pyrazol-4-yl)-9H-purin-6-yl]piperidin-4-yl}-1,3-dihydro-2H-imidazo[4,5-b]pyridin-2-one] was under 50 nM.
The value for `CCn1c(-c2ccc(C(F)(F)F)nc2)nc2c(N3CCC4(CC3)C(=O)Nc3ccccc34)ncnc21` [Compound 324, 1′-{9-ethyl-8-[6-(trifluoromethyl)pyridin-3-yl]-9H-purin-6-yl}spiro[indole-3,4′-piperidin]-2(1H)-one] was under 50 nM; that for `CCn1cc(-c2nc3c(N4CCC(n5c(=O)[nH]c6ncccc65)CC4)ncnc3n2CC)cn1` [Compound 325, 1-{1-[9-ethyl-8-(1-ethyl-1H-pyrazol-4-yl)-9H-purin-6-yl]piperidin-4-yl}-1,3-dihydro-2H-imidazo[4,5-b]pyridin-2-one] was under 50 nM; that for `CCn1c(-c2ccc(C(F)(F)F)nc2)nc2c(N3CCC(n4c(=O)[nH]c5ncccc54)CC3)ncnc21` [Compound 326, 1-(1-{9-ethyl-8-[6-(trifluoromethyl)pyridin-3-yl]-9H-purin-6-yl}piperidin-4-yl)-1,3-dihydro-2H-imidazo[4,5-b]pyridin-2-one] was under 50 nM.
With `Cn1c(-c2ccc(C(F)(F)F)nc2)nc2c(N3CCC4(CC3)C(=O)Nc3ccccc34)ncnc21` [Compound 327, 1′-{9-methyl-8-[6-(trifluoromethyl)pyridin-3-yl]-9H-purin-6-yl}spiro[indole-3,4′-piperidin]-2(1H)-one], the IC50 is under 50 nM.
As to `CCn1c(C(=O)N[C@H]2CC[C@H](O)CC2)nc2c(N3CCC(n4c(=O)[nH]c5ncccc54)CC3)ncnc21` [Compound 328, 9-ethyl-N-(trans-4-hydroxycyclohexyl)-6-[4-(2-oxo-2,3-dihydro-1H-imidazo[4,5-b]pyridin-1-yl)piperidin-1-yl]-9H-purine-8-carboxamide], the IC50 is under 50 nM.
